Data reported in patent publication US12486269B2 (Aconcagua Bio, Inc., priority 2024, dated 2025).

Columns and labels:
[1] = target: T1, COS-7/AMY3 (human calcitonin receptor (CTR) and RAMP3) (Homo sapiens, UniProt O60896+P30988); experiment: Amylin Receptor cAMP Assay II; assay type: cell-based; details: values marked **: Amylin Receptor cAMP Assay II; COS-7/AMY3 cells, cAMP dynamic 2 kit, 30 min; read-out: Amylin Receptor cAMP Stimulation Activity: EC50
T1 construct: expressed in transfected cells; host or cells: COS-7
T1 sequence (O60896 24-148, one chain of several): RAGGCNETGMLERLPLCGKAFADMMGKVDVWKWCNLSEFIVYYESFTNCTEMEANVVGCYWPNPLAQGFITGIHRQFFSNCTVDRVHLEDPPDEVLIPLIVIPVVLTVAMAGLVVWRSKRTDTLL
How it was run: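 Agonist-induced cAMP was quantified by HTRF ratio at 665/615 nm and expressed as % of the window from vehicle to MAX control. Stimulation lasted 30 min at 37 °C in HBSS/20 mM HEPES/0.5 mM IBMX/0.1% casein, using stable human CTR+RAMP3 (AMY3) COS-7 cells at 2000 per well.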

[2] = target: T2, human calcitonin receptor (CTR) (Homo sapiens, UniProt P30988); experiment: Calcitonin Receptor (CTR) cAMP Assay; assay type: cell-based; details: COS7-human CTR Clone #2 stable cell line, cAMP dynamic 2 kit, 30 min; read-out: Calcitonin Receptor cAMP Stimulation Activity: EC50
T2 construct: expressed in transfected cells; host or cells: COS-7 (COS7-human CTR Clone #2)
T2 sequence (P30988 25-474): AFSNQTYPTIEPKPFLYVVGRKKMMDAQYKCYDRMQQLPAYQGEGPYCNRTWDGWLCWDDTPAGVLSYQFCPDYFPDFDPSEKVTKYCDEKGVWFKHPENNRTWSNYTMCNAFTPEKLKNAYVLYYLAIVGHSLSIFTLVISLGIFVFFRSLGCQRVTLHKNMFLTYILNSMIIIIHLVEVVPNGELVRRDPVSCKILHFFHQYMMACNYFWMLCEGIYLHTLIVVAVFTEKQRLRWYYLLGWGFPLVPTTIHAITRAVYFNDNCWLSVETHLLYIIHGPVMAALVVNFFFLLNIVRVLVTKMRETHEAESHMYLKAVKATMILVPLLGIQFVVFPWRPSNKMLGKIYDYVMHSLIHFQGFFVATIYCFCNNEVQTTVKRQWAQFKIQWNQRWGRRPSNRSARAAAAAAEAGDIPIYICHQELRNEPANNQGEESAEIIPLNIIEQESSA
How it was run: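 cAMP accumulation was measured by HTRF cAMP dynamic 2 read at 665/615 nm, 1 h at room temperature, with results scaled between vehicle and positive control. Before detection, COS7-human CTR stable cells were stimulated 30 min at 37 °C with compound (4-fold dilutions) in IBMX-containing HBSS/HEPES/casein buffer.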

Row | SMILES | EC50 [1] [nM] | EC50 [2] [nM]
1 | COc1c(F)ccc2c1CC[C@H]2Nc1nc(C)cc2cc(-c3c4c(nc(CCc5ccc(F)cc5)c3-c3n[nH]c(=O)o3)[C@@H]3CCCN3C4=O)sc12 [Compound 187, 5-((S)-4-(7-(((R)-5-fluoro-4-methoxy-2,3-dihydro-1H-inden-1-yl)amino)-5-methylthieno[2,3-c]pyridin-2-yl)-2-(4-fluorophenethyl)-5-oxo-7,8,9,9a-tetrahydro-5H-pyrido[2,3-a]pyrrolizin-3-yl)-1,3,4-oxadiazol-2(3H)-one] | 0.608 | 0.0484
2 | COc1cccc2c1CC[C@H]2Nc1nc(C(F)F)cc2cc(-c3c4c(nc(CCc5ccc(F)cc5)c3-c3n[nH]c(=O)o3)[C@@H]3CCCN3C4=O)sc12 [Compound 188, 5-((S)-4-(5-(difluoromethyl)-7-(((R)-4-methoxy-2,3-dihydro-1H-inden-1-yl)amino)thieno[2,3-c]pyridin-2-yl)-2-(4-fluorophenethyl)-5-oxo-7,8,9,9a-tetrahydro-5H-pyrido[2,3-a]pyrrolizin-3-yl)-1,3,4-oxadiazol-2(3H)-one] | 6.57 | 0.223
3 | COc1c(F)c(F)cc2c1CC[C@H]2Nc1nccc2cc(-c3c4c(nc(CCc5ccc(F)cc5)c3-c3n[nH]c(=O)o3)[C@@H]3CCCN3C4=O)sc12 [Compound 192, 5-((S)-4-(7-(((R)-5,6-difluoro-4-methoxy-2,3-dihydro-1H-inden-1-yl)amino)thieno[2,3-c]pyridin-2-yl)-2-(4-fluorophenethyl)-5-oxo-7,8,9,9a-tetrahydro-5H-pyrido[2,3-a]pyrrolizin-3-yl)-1,3,4-oxadiazol-2(3H)-one] | 0.8 | 0.00532
4 | COc1c(F)ccc2c1CC[C@H]2Nc1nc(C)cc2cc(-c3c4c(nc(CCc5ccc(F)cc5)c3-c3n[nH]c(=O)o3)C35CC(CN3C4=O)C5)sc12 [Compound 193, (R)-5-(4-(7-((5-fluoro-4-methoxy-2,3-dihydro-1H-inden-1-yl)amino)-5-methylthieno[2,3-c]pyridin-2-yl)-2-(4-fluorophenethyl)-5-oxo-8,9-dihydro-5H,7H-8,9a-methanopyrido[2,3-a]pyrrolizin-3-yl)-1,3,4-oxadiazol-2(3H)-one] | 0.226 | 0.00749
5 | COc1cccc2c1CC(F)(F)[C@H]2Nc1nccc2cc(-c3c4c(nc(CCc5ccc(F)cc5)c3-c3n[nH]c(=O)o3)[C@@H]3CCCN3C4=O)sc12 [Compound 194, 5-((S)-4-(7-(((S)-2,2-difluoro-4-methoxy-2,3-dihydro-1H-inden-1-yl)amino)thieno[2,3-c]pyridin-2-yl)-2-(4-fluorophenethyl)-5-oxo-7,8,9,9a-tetrahydro-5H-pyrido[2,3-a]pyrrolizin-3-yl)-1,3,4-oxadiazol-2(3H)-one] | 1.96 | 0.229
6 | COc1c(F)ccc2c1C[C@@H](F)[C@H]2Nc1nc(C)cc2cc(-c3c4c(nc(CCc5ccc(F)cc5)c3-c3n[nH]c(=O)o3)C35CC(CN3C4=O)C5)sc12 [Compound 196, 5-(4-(7-(((1S,2R)-2,5-difluoro-4-methoxy-2,3-dihydro-1H-inden-1-yl)amino)-5-methylthieno[2,3-c]pyridin-2-yl)-2-(4-fluorophenethyl)-5-oxo-8,9-dihydro-5H,7H-8,9a-methanopyrido[2,3-a]pyrrolizin-3-yl)-1,3,4-oxadiazol-2(3H)-one] | 0.196 | 0.00979
7 | O=C1c2c(nc(CCC3CCOCC3)c(-c3cc(=O)[nH]o3)c2-c2cc3ccnc(N[C@@H]4CCc5ncccc54)c3s2)[C@@H]2CCCN12 [Compound 197, 5-((S)-4-(7-(((R)-6,7-dihydro-5H-cyclopenta[b]pyridin-5-yl)amino)thieno[2,3-c]pyridin-2-yl)-5-oxo-2-(2-(tetrahydro-2H-pyran-4-yl)ethyl)-7,8,9,9a-tetrahydro-5H-pyrido[2,3-a]pyrrolizin-3-yl)isoxazol-3(2H)-one] | 1790 | 58.9
8 | CC(C)C1CS(=O)(=O)c2c1nc(CCC1CCOCC1)c(-c1cc(=O)[nH]o1)c2-c1ccc2c(ccn2Cc2ccc(C#N)c(F)c2)c1 (stereo not shown) [Compound 199, 2-fluoro-4-[[5-[3-isopropyl-1,1-dioxo-6-(3-oxoisoxazol-5-yl)-5-(2-tetrahydropyran-4-ylethyl)-2,3-dihydrothieno[3,2-b]pyridin-7-yl]indol-1-yl]methyl]benzonitrile] | 301 | 3.7
9 | N#Cc1ccc(Cn2ccc3cc(-c4c(-c5cc(=O)[nH]o5)c(CCC5CCOCC5)nc5c4S(=O)(=O)N4CCC[C@@H]54)ccc32)cc1F [Compound 200, 4-[[5-[(2S)-7,7-dioxo-10-(3-oxoisoxazol-5-yl)-11-(2-tetrahydropyran-4-ylethyl)-7thia-6,12-diazatricyclo[6.4.0.02,6]dodeca-1(8),9,11-trien-9-yl]indol-1-yl]methyl]-2-fluoro-benzonitrile] | 1310 | 8.61
10 | O=C1c2c(nc(CCC3CCOCC3)c(-c3cc(=O)[nH]o3)c2-c2ccc3c(ccn3Cc3ccc(F)c(F)c3)c2)[C@@H]2CCCN12 [Compound 201, (S)-5-(4-(1-(3,4-difluorobenzyl)-1H-indol-5-yl)-5-oxo-2-(2-(tetrahydro-2H-pyran-4-yl)ethyl)-7,8,9,9a-tetrahydro-5H-pyrido[2,3-a]pyrrolizin-3-yl)isoxazol-3(2H)-one] | 1370 | 19.3

Further compounds by falling EC50 [1], results first:

Row | EC50 [1] [nM] | EC50 [2] [nM] | SMILES
11 | 1000 | 19.2 | O=c1cc(-c2c(CCC3CCOCC3)nc3c(c2-c2cc4ccnc(N[C@@H]5CCc6ncccc65)c4s2)S(=O)(=O)N2CCC[C@@H]32)o[nH]1 [Compound 198, 5-[(2S)-9-[7-[[(5R)-6,7-dihydro-5H-cyclopenta[b]pyridin-5-yl]amino]thieno[2,3-c]pyridin-2-yl]-7,7-dioxo-11-(2-tetrahydropyran-4-ylethyl)-7thia-6,12-diazatricyclo[6.4.0.02,6]dodeca-1(12),8,10-trien-10-yl]isoxazol-3-one]
12 | 0.213 | 0.0262 | COc1c(F)ccc2c1CC[C@H]2Nc1nccc2cc(-c3c4c(nc(CCc5ccc(F)cc5)c3-c3n[nH]c(=O)o3)C35CC(CN3C4=O)C5)sc12 [Compound 189, (R)-5-(4-(7-((5-fluoro-4-methoxy-2,3-dihydro-1H-inden-1-yl)amino)thieno[2,3-c]pyridin-2-yl)-2-(4-fluorophenethyl)-5-oxo-8,9-dihydro-5H,7H-8,9a-methanopyrido[2,3-a]pyrrolizin-3-yl)-1,3,4-oxadiazol-2(3H)-one]
13 | 0.184 | 0.00786 | O=C1c2c(nc(CCc3ccc(F)cc3)c(-c3n[nH]c(=O)o3)c2-c2cc3ccnc(N[C@@H]4CCc5cc(F)c(F)cc54)c3s2)C23CC(CN12)C3 [Compound 190, (R)-5-(4-(7-((5,6-difluoro-2,3-dihydro-1H-inden-1-yl)amino)thieno[2,3-c]pyridin-2-yl)-2-(4-fluorophenethyl)-5-oxo-8,9-dihydro-5H,7H-8,9a-methanopyrido[2,3-a]pyrrolizin-3-yl)-1,3,4-oxadiazol-2(3H)-one]
14 | 0.0995 | 0.00616 | COc1c(F)c(F)cc2c1CC[C@H]2Nc1nc(C)cc2cc(-c3c4c(nc(CCc5ccc(F)cc5)c3-c3n[nH]c(=O)o3)C35CC(CN3C4=O)C5)sc12 [Compound 195, (R)-5-(4-(7-((5,6-difluoro-4-methoxy-2,3-dihydro-1H-inden-1-yl)amino)-5-methylthieno[2,3-c]pyridin-2-yl)-2-(4-fluorophenethyl)-5-oxo-8,9-dihydro-5H,7H-8,9a-methanopyrido[2,3-a]pyrrolizin-3-yl)-1,3,4-oxadiazol-2(3H)-one]
